Patent US9695155B2, “Herbicidal substituted pyrimidinyloxy benzene compounds” (E. I. DU PONT DE NEMOURS AND COMPANY, priority 2013, dated 2017)

What was measured:
corn [1] = assay: Test C preemergence; assay type: in vivo, Zea mays; conditions: for Corn plant response rating: preemergence; for Plant response rating, Corn: Preemergence, scale 0 to 100, 0 no effect, 100 complete control
Outline: (§1)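 Rated visually on 0–100 (100 = complete control) after 13–15 days under glass. Treatments went onto freshly seeded loam/sand soil or onto emerged plants at the 1- to 4-leaf stage, using a surfactant-containing solvent formulation.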

corn [2] = assay: Test C postemergence; assay type: in vivo, Zea mays; conditions: for Plant response rating, Corn: Postemergence
From the text: (§2) Seeds of plant species selected from blackgrass (Alopecurus myosuroides), Italian ryegrass (Lolium multiflorum), wheat, winter (winter wheat, Triticum aestivum), galium (catchweed bedstraw, Galium aparine), corn (Zea mays), large (Lg) crabgrass (Digitaria sanguinalis), giant foxtail (Setaria faberii), johnsongrass (Sorghum halepense), lambsquarters (Chenopodium album), morningglory (Ipomoea coccinea), yellow nutsedge (Cyperus esculentus), pigweed (Amaranthus retroflexus), ragweed (common ragweed, Ambrosia elatior), soybean (Glycine max), barnyardgrass (Echinochloa crus-galli), oilseed rape (Brassica napus), waterhemp (common waterhemp, Amaranthus rudis), kochia (Kochia scoparia), wild oat (Avena fatua), surinam grass (Brachiaria decumbens), foxtail, green (green foxtail, Setaria viridis), goosegrass (Eleusine indica), bromegrass, downy (downy bromegrass, Bromus tectorum), nightshade (eastern black nightshade, Solanum ptycanthum), cocklebur (common cocklebur, Xanthium strumarium), cupgrass, woolly (woolly cupgrass, Eriochloa villosa), bermudagrass (Cynodon dactylon), sunflower, (common oilseed sunflower, Helianthus annuus), Russian thistle (Salsola kali), and velvetleaf (Abutilon theophrasti) were planted into a blend of loam soil and sand and treated preemergence with test chemicals formulated in a non-phytotoxic solvent mixture which included a surfactant.
(§3) At the same time, plants selected from these crop and weed species and also barley, winter (winter barley, Hordeum vulgare), windgrass (Apera spica-venti), chickweed (common chickweed, Stellaria media), deadnettle (henbit deadnettle, Lamium amplexicaule), and canarygrass (littleseed canarygrass, Phalaris minor) were planted in pots containing Redi-Earth® planting medium (Scotts Company, 14111 Scottslawn Road, Marysville, Ohio 43041) comprising spaghnum peat moss, vermiculite, wetting agent and starter nutrients and treated with postemergence applications of test chemicals formulated in the same manner. Plants ranged in height from 2 to 18 cm (1- to 4-leaf stage) for postemergence treatments. Treated plants and controls were maintained in a greenhouse for 13 to 15 days, after which time all species were compared to controls and visually evaluated. Plant response ratings, summarized in Table C, are based on a scale of 0 to 100 where 0 is no effect and 100 is complete control. A dash (-) response means no test result.

lambsquarters = assay: Test C preemergence; assay type: in vivo, Chenopodium album; conditions: for Lambsquarters plant response rating: preemergence; for Plant response rating, Lambsquarters: Preemergence, scale 0 to 100, 0 no effect, 100 complete control
Outline: as §1

large (Lg) crabgrass = assay: Test C preemergence; assay type: in vivo, Digitaria sanguinalis; conditions: for Crabgrass, Large plant response rating: preemergence; for Plant response rating, Crabgrass, Large: Preemergence, scale 0 to 100, 0 no effect, 100 complete control
Outline: as §1

corn [3] = assay: Test A postemergence; assay type: in vivo, Zea mays
Outline: (§4)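 Injury scores run from 0, no effect, to 100, complete control, judged by eye against untreated plants roughly 10 days after treatment. Chemicals carried a surfactant in a non-phytotoxic solvent and went onto loam–sand soil preemergence or onto one- to two-leaf seedlings postemergence.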

blackgrass = assay: Test C postemergence; assay type: in vivo, Alopecurus myosuroides; conditions: for Plant response rating, Blackgrass: Postemergence
From the text: as §2, §3

pigweed = assay: Test C preemergence; assay type: in vivo, Amaranthus retroflexus; conditions: for Pigweed plant response rating: preemergence; for Plant response rating, Pigweed: Preemergence, scale 0 to 100, 0 no effect, 100 complete control
From the text: as §2, §3

giant foxtail [4] = assay: Test A postemergence; assay type: in vivo, Setaria faberii; conditions: 0 to 100 scale where 0 is no effect and 100 is complete control
Outline: as §4

barnyardgrass = assay: Test C postemergence; assay type: in vivo, Echinochloa crus-galli; conditions: for Plant response rating, Barnyardgrass: Postemergence
From the text: as §2, §3

wheat, winter = assay: Test C postemergence; assay type: in vivo, Triticum aestivum; conditions: for Plant response rating, Wheat: Postemergence, scale 0 to 100 (0 no effect, 100 complete control)
From the text: as §2, §3

giant foxtail [5] = assay: Test C postemergence; assay type: in vivo, Setaria faberii; conditions: for Plant response rating, Foxtail, Giant: Postemergence
From the text: as §2, §3

kochia = assay: Test C postemergence; assay type: in vivo, Kochia scoparia; conditions: for Plant response rating, Kochia: Postemergence
From the text: as §2, §3

[6] = 16 g ai/ha, scale 0 to 100 (0 no effect, 100 complete control)
[7] = 62 g ai/ha, scale 0 (no effect) to 100 (complete control)
[8] = 125 g ai/ha, scale 0 (no effect) to 100 (complete control)
[9] = 16 g ai/ha, postemergence, visual rating, scale 0 to 100 (0 no effect, 100 complete control), 13 to 15 days
[10] = 31 g ai/ha, scale 0 to 100 (0 no effect, 100 complete control), 13 to 15 days
[11] = 62 g ai/ha, scale 0 to 100 (0 no effect, 100 complete control)
[12] = 125 g ai/ha, 0 to 100 scale where 0 is no effect and 100 is complete control

CCOc1cn(-c2c(Br)cccc2Oc2ncc(Cl)cn2)nn1 [Compound 84]
Corn plant response rating (corn [1]; [6]): 0
Corn plant response rating (corn [1]; [7]): 0
Corn plant response rating (corn [1]; [8]): 5
Plant response rating, Corn (corn [1]; 31 g ai/ha): 0
Corn plant response rating (corn [2]; [9]): 0
Plant response rating (0 to 100), Corn (corn [2]; 125 g ai/ha, postemergence): 5
Plant response rating, Corn (corn [2]; [10]): 0
Plant response rating, Corn (corn [2]; [11]): 0
Lambsquarters plant response rating (lambsquarters; [6]): 75
Lambsquarters plant response rating (lambsquarters; [7]): 100
Lambsquarters plant response rating (lambsquarters; [8]): 100
Plant response rating, Lambsquarters (lambsquarters; 31 g ai/ha): 85
Crabgrass, Large plant response rating (large (Lg) crabgrass; [6]): 45
Crabgrass, Large plant response rating (large (Lg) crabgrass; [7]): 100
Crabgrass, Large plant response rating (large (Lg) crabgrass; [8]): 100
Plant response rating, Crabgrass, Large (large (Lg) crabgrass; 31 g ai/ha): 98
Plant response rating, Corn (corn [3]; [12]): 20
Plant response rating, Corn (corn [3]; 500 g ai/ha, 0 to 100 scale, 0 no effect, 100 complete control): 70
Blackgrass plant response rating (blackgrass; [9]): 5
Plant response rating (0 to 100), Blackgrass (blackgrass; 125 g ai/ha, postemergence): 20
Plant response rating, Blackgrass (blackgrass; [10]): 5
Plant response rating, Blackgrass (blackgrass; [11]): 5
Pigweed plant response rating (pigweed; [6]): 85
Pigweed plant response rating (pigweed; [7]): 100
Pigweed plant response rating (pigweed; [8]): 100
Plant response rating, Pigweed (pigweed; 31 g ai/ha): 100
Plant response rating, Foxtail, Giant (giant foxtail [4]; 125 g ai/ha): 100
Plant response rating, Foxtail, Giant (giant foxtail [4]; 500 g ai/ha): 100
Barnyardgrass plant response rating (barnyardgrass; [9]): 0
Plant response rating (0 to 100), Barnyardgrass (barnyardgrass; 125 g ai/ha, postemergence): 15
Plant response rating, Barnyardgrass (barnyardgrass; [10]): 0
Plant response rating, Barnyardgrass (barnyardgrass; [11]): 0
Plant response rating (0 to 100), Wheat (wheat, winter; 125 g ai/ha, postemergence): 0
Plant response rating, Wheat (wheat, winter; 31 g ai/ha, 13 to 15 days): 0
Plant response rating, Wheat (wheat, winter; 62 g ai/ha): 0
Foxtail, Giant plant response rating (giant foxtail [5]; [9]): 40
Plant response rating (0 to 100), Foxtail, Giant (giant foxtail [5]; 125 g ai/ha, postemergence): 50
Plant response rating, Foxtail, Giant (giant foxtail [5]; [10]): 5
Plant response rating, Foxtail, Giant (giant foxtail [5]; [11]): 5
Kochia plant response rating (kochia; [9]): 55
Plant response rating (0 to 100), Kochia (kochia; 125 g ai/ha, postemergence): 80
Plant response rating, Kochia (kochia; [10]): 55
Plant response rating, Kochia (kochia; [11]): 70

CCOc1cnn(-c2ccccc2Oc2ncc(Cl)cn2)c1 [Compound 187]
Corn plant response rating (corn [1]; [6]): 0
Corn plant response rating (corn [1]; [8]): 5
Plant response rating, Corn (corn [1]; 62 g ai/ha): 5
Lambsquarters plant response rating (lambsquarters; [6]): 5
Lambsquarters plant response rating (lambsquarters; [8]): 100
Plant response rating, Lambsquarters (lambsquarters; 62 g ai/ha): 98
Crabgrass, Large plant response rating (large (Lg) crabgrass; [6]): 5
Crabgrass, Large plant response rating (large (Lg) crabgrass; [8]): 100
Plant response rating, Crabgrass, Large (large (Lg) crabgrass; 62 g ai/ha): 100
Corn plant response rating (corn [3]; [12]): 10
Plant response rating, Corn (corn [3]; 500 g ai/ha, 0 to 100 scale where 0 is no effect and 100 is complete control): 70
Pigweed plant response rating (pigweed; [6]): 45
Pigweed plant response rating (pigweed; [8]): 100
Plant response rating, Pigweed (pigweed; 62 g ai/ha): 90
Foxtail, Giant plant response rating (giant foxtail [4]; 125 g ai/ha): 60
Plant response rating, Foxtail, Giant (giant foxtail [4]; 500 g ai/ha): 90
